The text below walks through data of ChEMBL document CHEMBL2169841, “A simple solid phase, peptide-based fluorescent assay for the efficient and universal screening of HRV 3C protease inhibitors” (Bioorg Med Chem Lett, 2012).

pIC50: −log10 of the molar value. In brackets after ≈: the same amount, converted by molar mass.

For orientation: pIC50 means the negative decadic logarithm of the IC50, by convention in mol/L. A word on the IC50: it is the concentration needed to halve the response being measured.

What all share (set-up): species or system rhinovirus B14
Assay [1] can be described thus: Inhibition of human rhinovirus 14 recombinant N-terminal GST-tagged protease 3c expressed in Escherichia coli DH5alpha using LEVLFQGPSK(Fluoro)G as substrate after 1 hr by discontinuous heterogeneous fluorometric assay.
Assay [2] is described as follows: Inhibition of human rhinovirus 14 recombinant N-terminal GST-tagged protease 3c expressed in Escherichia coli DH5alpha using Staphylococcus superantigen like protein 7-thioredoxin fusion protein as substrate after 1 hr by SDS-PAGE analysis.
A short description of assay [3]: Inhibition of human rhinovirus 14 protease 3c by HPLC analysis.

With `C=CCC1=C(Br)C(=O)c2ccccc2C1=O`, in assay [1], the negative-log IC50 (pIC50) is 5.06.

In the case of `CC(=O)CC1=C(Br)C(=O)c2ccccc2C1=O`, the pIC50 in assay [1] is 4.20.

Regarding `CC(O)CC1=C(Br)C(=O)c2ccccc2C1=O` (configuration not stated), the pIC50 in assay [1] was 4.03.

In the case of `C[C@H]1CC2=C(C(=O)c3c(O)cc(O)cc3C2=O)[C@H](O)O1`, the IC50 in assay [2] turned out to be 14.1 µg/mL; in assay [3], 13 µg/mL (≈ 47.1 µM). Moreover, the pIC50 in assay [1] was 4.28.

On to `O=C1C=C(Br)C(=O)c2ccccc21` [2-Bromo-1,4-naphthoquinone], for which, in assay [1], the pIC50 was 5.38.
